The IC50 is the concentration needed to halve the response being measured.

Experiment [1] relates to TGF-beta 1 stimulated SBE-bla HEK 293T. As to the kind of experiment: GeneBLAzer beta-lactamase (bla) reporter, TGF-beta 1 stimulated SBE-bla HEK 293T cell-based assay (ThermoFisher SelectScreen). The following applies: Homo sapiens; SBE-bla HEK 293T cells; 30 minutes pre-incubation with inhibitor; TGF-beta 1 0.03 nM, 5 hours; inhibitor 10,000nM to 0.316nM; read-out: Cells (SBE_HEK293T) IC50. From the text:
(§1) Table 2, below, describes the results of assays carried out on some compounds provided by the present disclosure. Exemplified compounds are confirmed to inhibit ALK5 activity in enzyme and cellular assays in the following assay systems conducted by ThermoFisher in Madison, WI according to their commercially available protocols.
ThermoFisher SelectScreen™ Cell-based Pathway Profiling Service GeneBLAzer Beta-lactamase (bla) Reporter Technology - TGF-beta 1 stimulated SBE-bla HEK 293T Cell-based Assay
SBE-bla HEK 293T cells are thawed and re-suspended in Assay Media (OPTI-MEM, 0.5% dialyzed FBS, 0.1 mM NEAA, 1 mM Sodium Pyruvate, 100 U/mL/100 µg/mL Pen/Strep) to a concentration of 625,000 cells/mL. 32 µL of cell suspension (20,000 cells) is added to each well of a 384-well Poly-D-Lysine assay plate. Cells in Assay Media are incubated for 16-24 hours in the plate at 37°C/5% CO2 in a humidified incubator. 4 µL of a 10X serial dilution of ALK5 inhibitors (10x = 100,000-3.16 nM) is added to appropriate wells of the plate and pre-incubated at 37°C/5% CO2 in a humidified incubator with cells for 30 minutes. Final concentration of inhibitor ranged from 10,000nM to 0.316nM. 4 µL of 10X TGF-beta 1 (final concentration of 0.03 nM) is added to wells containing the inhibitors. The plate is incubated for 5 hours at 37°C/5% CO2 in a humidified incubator. 8 µL of 1 µM Substrate Loading Solution is added to each well and the plate is incubated for 2 hours at room temperature before being read on a fluorescence plate reader. Percent inhibition is determined compared to DMSO only control (maximal TGF-beta 1 stimulation) and sigmoidal dose response curve fit yielded IC50 values as indicated in Table 2. TABLE 2: Biological activity assay results

Experiment [2] deals with T1, TGFBR1 (ALK5) (Homo sapiens, UniProt P36897).
T1 sequence (P36897 34-503): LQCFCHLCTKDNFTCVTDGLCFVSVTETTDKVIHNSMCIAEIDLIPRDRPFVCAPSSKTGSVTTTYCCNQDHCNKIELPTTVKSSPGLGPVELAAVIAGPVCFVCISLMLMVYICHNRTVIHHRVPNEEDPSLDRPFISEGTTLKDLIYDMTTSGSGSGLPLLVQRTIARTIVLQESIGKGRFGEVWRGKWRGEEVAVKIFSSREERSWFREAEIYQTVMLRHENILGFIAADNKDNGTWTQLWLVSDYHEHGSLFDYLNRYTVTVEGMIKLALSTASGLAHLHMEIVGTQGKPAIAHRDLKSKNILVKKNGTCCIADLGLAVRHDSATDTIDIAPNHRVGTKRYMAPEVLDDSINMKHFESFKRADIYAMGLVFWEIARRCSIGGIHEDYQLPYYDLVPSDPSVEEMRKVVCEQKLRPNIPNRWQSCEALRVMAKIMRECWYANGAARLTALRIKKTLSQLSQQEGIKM
As to the kind of experiment: LanthaScreen Eu Kinase Binding Assay TGFBR1 (ALK5) (ThermoFisher SelectScreen). The following applies: ALK5 5 nM, Tracer #178 5 nM, Eu-anti-GST antibody 2 nM, 1 hour at room temperature, 1% DMSO; read-out: TβRI (ALK5) Binding IC50.
Text: as §1
ThermoFisher SelectScreen™ Biochemical Kinase Profiling Service, LanthaScreen™Eu Kinase Binding Assay TGFBR1 (ALK5)
Exemplified compounds are screened in 1% DMSO (final concentration) by 3-fold serial dilutions from 10,000 nM to 0.316 nM or at single concentrations of 10,000, 1000 and 100 nM according to the following protocol. To low volume, white 384-well plates (Greiner Cat#784207) add 160 nL 100x compound in 100% DMSO, 3.84 uL kinase buffer (50 mM HEPES, pH 7.5, 0.01% BRIJ-35, 10 mM MgCl2, 1 mM EGTA), 8 uL 2x kinase/antibody mixture in kinase buffer (final ALK5 concentration of 5 nM; final Eu-anti-GST antibody concentration of 2 nM), 4 uL 4x Tracer #178 in kinase buffer (final concentration of 5 nM). Gently shake the plates for 30 seconds and incubate at room temperature for 1 hour before reading fluorescence on a plate reader. Percent inhibition is determined compared to DMSO only control (maximal ALK5 tracer binding) and sigmoidal dose response curve fit yielded IC50 values as indicated in Table 2.
On the technique in general: Time-resolved FRET reads energy transfer from a long-lived donor to a nearby acceptor.

Where a name gives a salt, the structure may show the parent alone.

As for `NC(=O)c1ncnc2ccc(-c3c(-c4ccn(C5CC5)n4)nc4n3CCC4)cc12` [Compound 95, 6-(2-(1-Cyclopropyl-1H-pyrazol-3-yl)-6,7-dihydro-5H-pyrrolo[1,2-a]imidazol-3-yl)quinazoline-4-carboxamide], the IC50 in experiment [1] was determined as 151 nM; in experiment [2] it was 8.9 nM.

Regarding `NC(=O)c1ncnc2ccc(-c3c(-c4ccn(C5CC5)n4)nc4sccn34)cc12` [Compound 96, 6-(6-(1-Cyclopropyl-1H-pyrazol-3-yl)imidazo[2,1-b]thiazol-5-yl)quinazoline-4-carboxamide], the IC50 in experiment [1] is 24.9 nM; in experiment [2] it was 1.7 nM.

Take `CC(C)n1ccc(-c2nc3sccn3c2-c2ccc3nc[nH]c(=O)c3c2)n1` [Compound 97, 6-(6-(1-Isopropyl-1H-pyrazol-3-yl)imidazo[2,1-b]thiazol-5-yl)quinazolin-4(3H)-one hydrochloride]: the results for the half-maximal inhibitory concentration (IC50) in experiment [1] and in experiment [2] were 528 nM and 12.5 nM, respectively.

The record behind these values is EP3840748B1, “SUBSTITUTED IMIDAZOLES FOR THE INHIBITION OF TGF-BETA AND METHODS OF TREATMENT” (Clavius Pharmaceuticals, LLC, priority 2018, dated 2020).
